# Values quoted from earlier work in patent US9750732B2, “Urinary triaosylceramide (Gb3) as a marker of cardiac disease” (Baylor Research Institute, priority 2009, dated 2017).
# Like-named read-outs stand apart in the source and are kept apart here.
# Experiments:
# APC: protein S [1] = details: purified proteins
# APC: protein S [2] = details: exogenously added; in the presence but not absence of APC: protein S
# [3] = in multicomponent vesicles containing phosphatidylserine and phosphatidylcholine
substance,measurement,setting,value
galactosylceramide,inactivation of factor Va by APC: protein S,APC: protein S [1]; [3],enhanced
globotriaosylceramide [Gb3Cer],clotting times of normal plasma,APC: protein S [2],dose-dependently prolonged clotting times
same,inactivation of factor Va by APC: protein S,APC: protein S [1]; [3],enhanced
glycosylceramide [GlcCer],clotting times of normal plasma,APC: protein S [2],dose-dependently prolonged clotting times
same,inactivation of factor Va by APC: protein S,APC: protein S [1]; glycolipid alone,enhanced
same,inactivation of factor Va by APC: protein S,APC: protein S [1]; [3],enhanced
lactosylceramide,inactivation of factor Va by APC: protein S,APC: protein S [1]; [3],enhanced
